# Results as given in ChEMBL document CHEMBL1201862, “PubChem BioAssay data set” (2004).
#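 Each compound was tested at five concentrations against cells in 96-well plates for 48 hours. GI50 = concentration required for 50% inhibition of growth.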 Calls of active or inactive are those of the source. No stated cut-off is given here; in the data, active = GI50 up to about 1.1 µM and inactive = higher.
# How the values were obtained:
# Assay in all cases: NCI tumour cell line growth inhibition, 48 h
# 786-0 = system: 786-0
# A498 = system: A498
# A549 = system: A549
# ACHN = system: ACHN
# CAKI-1 = system: CAKI-1
# CCRF-CEM = system: CCRF-CEM
# COLO 205 = system: COLO 205
# DLD-1 = system: DLD-1
# DMS-114 = system: DMS-114
# EKVX = system: EKVX
# HCC 2998 = system: HCC 2998
# HCT-116 = system: HCT-116
# HCT-15 = system: HCT-15
# HL-60 = system: HL-60
# HOP-62 = system: HOP-62
# HOP-92 = system: HOP-92
# HT-29 = system: HT-29
# IGROV-1 = system: IGROV-1
# K562 = system: K562
# KM-20L2 = system: KM-20L2
# KM12 = system: KM12
# LOX IMVI = system: LOX IMVI
# LXFL 529 = system: LXFL 529
# M14 = system: M14
# M19-MEL = system: M19-MEL
# MOLT-4 = system: MOLT-4
# Malme-3M = system: Malme-3M
# NCI-H226 = system: NCI-H226
# NCI-H23 = system: NCI-H23
# NCI-H460 = system: NCI-H460
# OVCAR-3 = system: OVCAR-3
# OVCAR-4 = system: OVCAR-4
# OVCAR-5 = system: OVCAR-5
# OVCAR-8 = system: OVCAR-8
# RPMI-8226 = system: RPMI-8226
# RXF 393 = system: RXF 393
# SF-268 = system: SF-268
# SF-295 = system: SF-295
# SF-539 = system: SF-539
# SK-MEL-28 = system: SK-MEL-28
# SK-MEL-2 = system: SK-MEL-2
# SK-MEL-5 = system: SK-MEL-5
# SK-OV-3 = system: SK-OV-3
# SNB-19 = system: SNB-19
# SNB-75 = system: SNB-75
# SNB-78 = system: SNB-78
# SR = system: SR
# SW-620 = system: SW-620
# TK-10 = system: TK-10
# U-251 = system: U-251
# UACC-257 = system: UACC-257
# UACC-62 = system: UACC-62
# UO-31 = system: UO-31
# XF498 = system: XF498
# HOP-18 = system: HOP-18
# NCI-H522 = system: NCI-H522
# BT-549 = system: BT-549
# DMS-273 = system: DMS-273
# DU-145 = system: DU-145
# Hs-578T = system: Hs-578T
# MCF7 = system: MCF7
# MDA-MB-231 = system: MDA-MB-231
# MDA-MB-435 = system: MDA-MB-435
# MDA-N = system: MDA-N
# NCI/ADR-RES = system: NCI/ADR-RES
# PC-3 = system: PC-3
# SN12C = system: SN12C
# T47D = system: T47D
compound,measurement,setting,value
O=C(Nc1ccc(F)cc1)C(=O)C(C1OC(=O)c2ccccc21)[N+](=O)[O-] (stereo not given),GI50,786-0,> 100 µM (inactive)
same,GI50,A498,> 100 µM (inactive)
same,GI50,A549,> 100 µM (inactive)
same,GI50,ACHN,> 100 µM (inactive)
same,GI50,CAKI-1,> 100 µM (inactive)
same,GI50,CCRF-CEM,> 100 µM (inactive)
same,GI50,COLO 205,> 100 µM (inactive)
same,GI50,DLD-1,> 100 µM (inactive)
same,GI50,DMS-114,> 100 µM (inactive)
same,GI50,EKVX,> 100 µM (inactive)
same,GI50,HCC 2998,> 100 µM (inactive)
same,GI50,HCT-116,> 100 µM (inactive)
same,GI50,HCT-15,> 100 µM
same,GI50,HL-60,> 100 µM (inactive)
same,GI50,HOP-62,> 100 µM (inactive)
same,GI50,HOP-92,> 100 µM (inactive)
same,GI50,HT-29,> 100 µM (inactive)
same,GI50,IGROV-1,> 100 µM (inactive)
same,GI50,K562,> 100 µM (inactive)
same,GI50,KM-20L2,> 100 µM (inactive)
same,GI50,KM12,> 100 µM (inactive)
same,GI50,LOX IMVI,> 100 µM (inactive)
same,GI50,LXFL 529,> 100 µM (inactive)
same,GI50,M14,> 100 µM (inactive)
same,GI50,M19-MEL,> 100 µM (inactive)
same,GI50,MOLT-4,> 100 µM (inactive)
same,GI50,Malme-3M,> 100 µM (inactive)
same,GI50,NCI-H226,> 100 µM (inactive)
same,GI50,NCI-H23,> 100 µM (inactive)
same,GI50,NCI-H460,> 100 µM (inactive)
same,GI50,OVCAR-3,> 100 µM (inactive)
same,GI50,OVCAR-4,> 100 µM (inactive)
same,GI50,OVCAR-5,> 100 µM (inactive)
same,GI50,OVCAR-8,> 100 µM (inactive)
same,GI50,RPMI-8226,> 100 µM (inactive)
same,GI50,RXF 393,> 100 µM (inactive)
same,GI50,SF-268,> 100 µM (inactive)
same,GI50,SF-295,> 100 µM (inactive)
same,GI50,SF-539,> 100 µM (inactive)
same,GI50,SK-MEL-28,> 100 µM (inactive)
same,GI50,SK-MEL-2,> 100 µM (inactive)
same,GI50,SK-MEL-5,> 100 µM (inactive)
same,GI50,SK-OV-3,> 100 µM (inactive)
same,GI50,SNB-19,> 100 µM (inactive)
same,GI50,SNB-75,> 100 µM (inactive)
same,GI50,SNB-78,> 100 µM (inactive)
same,GI50,SR,> 100 µM (inactive)
same,GI50,SW-620,> 100 µM (inactive)
same,GI50,TK-10,> 100 µM (inactive)
same,GI50,U-251,> 100 µM (inactive)
same,GI50,UACC-257,> 100 µM (inactive)
same,GI50,UACC-62,> 100 µM (inactive)
same,GI50,UO-31,> 100 µM (inactive)
same,GI50,XF498,> 100 µM (inactive)
COc1cc(C2C(Cl)C(=O)N2NC(=O)c2ccc(NC(C)=O)cc2)cc(OC)c1OC (stereo not given),GI50,A549,> 100 µM (inactive)
same,GI50,ACHN,> 10 µM (inactive)
same,GI50,CCRF-CEM,> 100 µM (inactive)
same,GI50,COLO 205,> 100 µM (inactive)
same,GI50,DLD-1,> 100 µM (inactive)
same,GI50,HCT-116,> 100 µM (inactive)
same,GI50,HL-60,> 100 µM (inactive)
same,GI50,HOP-18,> 100 µM (inactive)
same,GI50,HOP-62,> 100 µM (inactive)
same,GI50,HOP-92,> 100 µM (inactive)
same,GI50,HT-29,> 100 µM (inactive)
same,GI50,IGROV-1,> 100 µM (inactive)
same,GI50,K562,> 100 µM (inactive)
same,GI50,KM12,> 100 µM (inactive)
same,GI50,LXFL 529,> 100 µM (inactive)
same,GI50,M19-MEL,> 100 µM (inactive)
same,GI50,MOLT-4,> 100 µM (inactive)
same,GI50,Malme-3M,> 100 µM (inactive)
same,GI50,NCI-H226,> 100 µM (inactive)
same,GI50,NCI-H23,> 100 µM (inactive)
same,GI50,NCI-H460,> 100 µM (inactive)
same,GI50,NCI-H522,> 100 µM (inactive)
same,GI50,OVCAR-3,> 100 µM (inactive)
same,GI50,OVCAR-5,> 100 µM (inactive)
same,GI50,RPMI-8226,> 100 µM (inactive)
same,GI50,SF-268,> 100 µM (inactive)
same,GI50,SF-295,> 100 µM (inactive)
same,GI50,SF-539,> 100 µM (inactive)
same,GI50,SK-MEL-28,> 100 µM (inactive)
same,GI50,SK-MEL-2,> 100 µM (inactive)
same,GI50,SK-MEL-5,> 100 µM (inactive)
same,GI50,SK-OV-3,> 100 µM (inactive)
same,GI50,SNB-19,> 100 µM (inactive)
same,GI50,SNB-75,> 100 µM (inactive)
same,GI50,SW-620,> 100 µM (inactive)
same,GI50,TK-10,> 100 µM (inactive)
same,GI50,U-251,> 100 µM (inactive)
same,GI50,UACC-257,> 100 µM (inactive)
same,GI50,UACC-62,> 100 µM (inactive)
same,GI50,UO-31,> 100 µM (inactive)
CC(C)[C@](O)(C(=O)OCC1=CC[N+]2([O-])CC[C@@H](O)[C@@H]12)[C@H](C)O (stereo not given in full) [INDICINE N-OXIDE],GI50,786-0,> 9270 µM (inactive)
same,GI50,A498,8970 µM (inactive)
same,GI50,A549,5960 µM (inactive)
same,GI50,ACHN,4600 µM (inactive)
same,GI50,BT-549,> 10000 µM (inactive)
same,GI50,CAKI-1,6520 µM (inactive)
same,GI50,CCRF-CEM,> 9160 µM (inactive)
same,GI50,COLO 205,> 5940 µM (inactive)
same,GI50,DLD-1,> 10000 µM (inactive)
same,GI50,DMS-273,6080 µM (inactive)
same,GI50,DU-145,> 10000 µM (inactive)
same,GI50,EKVX,> 9060 µM (inactive)
same,GI50,HCC 2998,> 10000 µM (inactive)
same,GI50,HCT-116,> 10000 µM (inactive)
same,GI50,HCT-15,> 10000 µM
same,GI50,HL-60,3230 µM (inactive)
same,GI50,HOP-18,> 10000 µM (inactive)
same,GI50,HOP-62,3590 µM (inactive)
same,GI50,HOP-92,> 9730 µM (inactive)
same,GI50,HT-29,> 10000 µM (inactive)
same,GI50,Hs-578T,> 5430 µM (inactive)
same,GI50,IGROV-1,> 9330 µM (inactive)
same,GI50,K562,> 10000 µM (inactive)
same,GI50,KM-20L2,> 10000 µM (inactive)
same,GI50,KM12,> 10000 µM (inactive)
same,GI50,LOX IMVI,> 7800 µM (inactive)
same,GI50,M14,> 10000 µM (inactive)
same,GI50,M19-MEL,> 10000 µM (inactive)
same,GI50,MCF7,> 10000 µM (inactive)
same,GI50,MDA-MB-231,> 10000 µM (inactive)
same,GI50,MDA-MB-435,> 10000 µM (inactive)
same,GI50,MDA-N,> 10000 µM (inactive)
same,GI50,MOLT-4,8570 µM (inactive)
same,GI50,Malme-3M,> 9420 µM (inactive)
same,GI50,NCI-H226,> 10000 µM (inactive)
same,GI50,NCI-H23,> 6000 µM (inactive)
same,GI50,NCI-H460,5960 µM (inactive)
same,GI50,NCI-H522,> 7410 µM (inactive)
same,GI50,NCI/ADR-RES,> 10000 µM (inactive)
same,GI50,OVCAR-3,9910 µM (inactive)
same,GI50,OVCAR-4,> 10000 µM (inactive)
same,GI50,OVCAR-5,> 10000 µM (inactive)
same,GI50,OVCAR-8,8110 µM (inactive)
same,GI50,PC-3,> 10000 µM (inactive)
same,GI50,RPMI-8226,> 10000 µM (inactive)
same,GI50,RXF 393,7460 µM (inactive)
same,GI50,SF-268,> 9930 µM (inactive)
same,GI50,SF-295,> 10000 µM (inactive)
same,GI50,SF-539,> 9080 µM (inactive)
same,GI50,SK-MEL-28,> 10000 µM (inactive)
same,GI50,SK-MEL-2,> 10000 µM (inactive)
same,GI50,SK-MEL-5,> 7000 µM (inactive)
same,GI50,SK-OV-3,> 10000 µM (inactive)
same,GI50,SN12C,8870 µM (inactive)
same,GI50,SNB-19,> 10000 µM (inactive)
same,GI50,SNB-75,> 9750 µM (inactive)
same,GI50,SNB-78,> 10000 µM (inactive)
same,GI50,SR,4630 µM (inactive)
same,GI50,SW-620,> 10000 µM (inactive)
same,GI50,T47D,> 10000 µM (inactive)
same,GI50,TK-10,> 10000 µM (inactive)
same,GI50,U-251,> 8570 µM (inactive)
same,GI50,UACC-257,> 10000 µM (inactive)
same,GI50,UACC-62,7210 µM (inactive)
same,GI50,UO-31,> 10000 µM (inactive)
CNc1nc(N(C)C)nc(N(C)C)n1 [PENTAMETHYL MELAMINE],GI50,LXFL 529,> 100 µM (inactive)
